# Measurements as given in patent US20220387365A1, “TUCARESOL DERIVATIVES AND USES THEREOF” (BeyondSpring Pharmaceuticals, Inc., priority 2019, published 2022).
# Like-named read-outs stand apart in the source and are kept apart here. Marks after values point to notes of the source that are not given here.
# Experiments:
# [1] = Intravenous and oral dosing pharmacokinetic screen, plasma concentration by LC/MS/MS; design: species or system C57BL/6 mice; conditions: male, C57BL/6, mouse, in vivo
# Procedure: Tucaresol, Compound B02, Compound C01, Compound C02-1, and Compound C02 were dosed once, by IV bolus (3 mg/kg in 20% hydroxyprophyl-13-cyclodextrin with 1 eq NaOH) or PO (10 mg/kg in 1% carboxymethylcellulose/0.1% tween-80 in water), to non-fasted male C57BL/6 mice. Animals were bled from the dorsal metatarsal vein (from the heart for 24 hour time point) for K2-EDTA plasma 0.083 (for IV only), 0.25, 0.5, 1, 2, 4, 8, and 24 hours after dosing. The plasma concentration of the dosed tucaresol or compound were measured by LC/MS/MS (I-CMS-8060 instrument for MS). PK parameters were then calculated with WinNonlin 6.1. For Compounds C01, CO2 and CO2-1, stability in C57BL/6 K2EDTA plasma was also evaluated at 22° C. over 1 hour by utilizing LC.
# [2] = Body weight in MC38 model (Example 10); format: in vivo; conditions: for Mean Body Weight: in g (unit assumed)
# Procedure: After tumor cell inoculation, the animals were checked daily for morbidity and mortality. During routine monitoring, the animals were checked for any effects of tumor growth and treatments on behavior such as mobility, food and water consumption, body weight gain/loss (Body weights were measured three times a week after randomization), eye/hair matting and any other abnormalities. Mortality and observed clinical signs were recorded for individual animals in detail.
# Tumor volumes were measured three times a week after randomization in two dimensions using a caliper, and the volume was expressed in mm^3 using the formula: V=(L×W×W)/2, where V is tumor volume, L is tumor length (the longest tumor dimension) and W is tumor width (the longest tumor dimension perpendicular to L). Dosing as well as tumor and body weight measurements were conducted in a Laminar Flow Cabinet. The body weights and tumor volumes were measured by using StudyDirector™ software (version 3.1.399.19).
# After one measurement of body weight loss (BWL)>20% or BWL>15% for consecutive 72 hours, the individual mouse was sacrificed. BWL was calculated based on the BW of mouse on the first day of treatment. After one measurement of BWL>15%, dosing holidays were given to the individual mouse with BWL>15% which was housed in a separate cage alone with daily monitoring for 72 hours, while other mice in the same group would receive dosing as scheduled., treatment was resumed when the BWL has recovered to BWL<10%. Supplemental gel was supplied to all the animals in the study on day 5 to day 15 upon sponsor's request.
# The body weight of all animals was monitored throughout the study and animals were euthanized if they lost over 15% of their body weight relative to the weight at the first day of treatment for 3 consecutive days, or lose over 20% of their body weight relative to the weight at the first day of treatment.
# [3] = iv, 3 mg/kg, Compound C02 concentration
# [4] = iv, 3 mg/kg, Compound C02 concentration, Mean
# [5] = iv, 3 mg/kg, Tucaresol concentration
# [6] = iv, 3 mg/kg, Tucaresol concentration, Mean
# [7] = po, 10 mg/kg, Tucaresol concentration
# [8] = po, 10 mg/kg, Tucaresol concentration, Mean
smiles,measurement,setting,value
O=Cc1c(OCc2ccc(C(=O)O)cc2)cccc1OC1O[C@H](CO)[C@@H](O)[C@H](O)[C@H]1O (stereo partly drawn) [Compound C02],AUClast/D,[1],947 ng·h/mL per mg/kg
same,T1/2,[1],3.94 h
same,Tmax,[1],0.500 h
same,"Tucaresol concentration, Mean","[1]; iv, 3 mg/kg, 0.083 h",28.3 ng/mL
same,"Tucaresol concentration, Mean","[1]; iv, 3 mg/kg, 0.25 h",128 ng/mL
same,"Tucaresol concentration, Mean","[1]; iv, 3 mg/kg, 0.5 h",165 ng/mL
same,"Tucaresol concentration, Mean","[1]; iv, 3 mg/kg, 1 h",123 ng/mL
same,"Tucaresol concentration, Mean","[1]; iv, 3 mg/kg, 2 h",114 ng/mL
same,"Tucaresol concentration, Mean","[1]; iv, 3 mg/kg, 4 h",76.1 ng/mL
same,"Tucaresol concentration, Mean","[1]; iv, 3 mg/kg, 8 h",37.1 ng/mL
same,concentration at 0.083 h,[1]; [3],1830 ng/mL
same,concentration at 0.25 h,[1]; [3],537 ng/mL
same,concentration at 0.083 h,[1]; [4],2390 ng/mL
same,concentration at 0.25 h,[1]; [4],578 ng/mL
same,concentration at 0.5 h,[1]; [4],220 ng/mL
same,"Tucaresol concentration, Mean","[1]; po, 10 mg/kg, 0.25 h",972 ng/mL
same,"Tucaresol concentration, Mean","[1]; po, 10 mg/kg, 0.5 h",1398 ng/mL
same,"Tucaresol concentration, Mean","[1]; po, 10 mg/kg, 1 h",915 ng/mL
same,"Tucaresol concentration, Mean","[1]; po, 10 mg/kg, 2 h",532 ng/mL
same,"Tucaresol concentration, Mean","[1]; po, 10 mg/kg, 4 h",390 ng/mL
same,"Tucaresol concentration, Mean","[1]; po, 10 mg/kg, 8 h",241 ng/mL
same,"Tucaresol concentration, Mean","[1]; po, 10 mg/kg, 24 h",12.3 ng/mL
same,concentration at 0.5 h,"[1]; po, 10 mg/kg, C02 concentration",59.1 ng/mL
same,weight loss (in words),"[2]; 20 mg/kg, PO, QDx5 (day 1-5), as a monotherapy or in combination with anti-PD1",not associated with weight loss
same,Mean Body Weight,"[2]; Day 1, Group 02: C02 20 mg/kg p.o. QD × 5 (day 1~5) + Rat IgG2a 10 mg/kg i.p. BIW",18.9 ± 0.2
same,Mean Body Weight,"[2]; Day 1, Group 04: C02 20 mg/kg p.o. QD × 5 (day 1~5) in combination with PD-1 (RMP 1-14) 10 mg/kg i.p. BIW × 6 doses",19.2 ± 0.2
same,Mean Body Weight,"[2]; Day 4, Group 02: C02 20 mg/kg p.o. QD × 5 (day 1~5) + Rat IgG2a 10 mg/kg i.p. BIW",19.2 ± 0.2
same,Mean Body Weight,"[2]; Day 4, Group 04: C02 20 mg/kg p.o. QD × 5 (day 1~5) in combination with PD-1 (RMP 1-14) 10 mg/kg i.p. BIW × 6 doses",19.3 ± 0.2
same,Mean Body Weight,"[2]; Day 8, Group 02: C02 20 mg/kg p.o. QD × 5 (day 1~5) + Rat IgG2a 10 mg/kg i.p. BIW",19.6 ± 0.2
same,Mean Body Weight,"[2]; Day 8, Group 04: C02 20 mg/kg p.o. QD × 5 (day 1~5) in combination with PD-1 (RMP 1-14) 10 mg/kg i.p. BIW × 6 doses",19.9 ± 0.1
same,Mean Body Weight,"[2]; Day 10, Group 02: C02 20 mg/kg p.o. QD × 5 (day 1~5) + Rat IgG2a 10 mg/kg i.p. BIW",20 ± 0.3
same,Mean Body Weight,"[2]; Day 10, Group 04: C02 20 mg/kg p.o. QD × 5 (day 1~5) in combination with PD-1 (RMP 1-14) 10 mg/kg i.p. BIW × 6 doses",20.3 ± 0.2
same,Mean Body Weight,"[2]; Day 12, Group 02: C02 20 mg/kg p.o. QD × 5 (day 1~5) + Rat IgG2a 10 mg/kg i.p. BIW",20.6 ± 0.4
same,Mean Body Weight,"[2]; Day 12, Group 04: C02 20 mg/kg p.o. QD × 5 (day 1~5) in combination with PD-1 (RMP 1-14) 10 mg/kg i.p. BIW × 6 doses",21 ± 0.2
same,Mean Body Weight,"[2]; Day 15, Group 02: C02 20 mg/kg p.o. QD × 5 (day 1~5) + Rat IgG2a 10 mg/kg i.p. BIW",22.3 ± 0.5
same,Mean Body Weight,"[2]; Day 15, Group 04: C02 20 mg/kg p.o. QD × 5 (day 1~5) in combination with PD-1 (RMP 1-14) 10 mg/kg i.p. BIW × 6 doses",21.9 ± 0.4
O=Cc1c(O)cccc1OCc1ccc(C(=O)O)cc1 [Tucaresol],AUClast/D,[1],825 ng·h/mL per mg/kg
same,F,[1],75.0%
same,T1/2,[1],4.67 h
same,Tmax,[1],0.250 h
same,concentration at 0.083 h,[1]; [5],1360 ng/mL
same,concentration at 0.25 h,[1]; [5],1240 ng/mL
same,concentration at 0.5 h,[1]; [5],972 ng/mL
same,concentration at 1 h,[1]; [5],623 ng/mL
same,concentration at 2 h,[1]; [5],473 ng/mL
same,concentration at 4 h,[1]; [5],122 ng/mL
same,concentration at 8 h,[1]; [5],73.6 ng/mL
same,concentration at 24 h,[1]; [5],12 ng/mL
same,concentration at 0.083 h,[1]; [6],1890 ng/mL
same,concentration at 0.25 h,[1]; [6],1330 ng/mL
same,concentration at 0.5 h,[1]; [6],985 ng/mL
same,concentration at 1 h,[1]; [6],707 ng/mL
same,concentration at 2 h,[1]; [6],421 ng/mL
same,concentration at 4 h,[1]; [6],115 ng/mL
same,concentration at 8 h,[1]; [6],73.4 ng/mL
same,concentration at 24 h,[1]; [6],9.5 ng/mL
same,Tucaresol concentration,"[1]; po, 10 mg/kg, 8 h",164* ng/mL
same,concentration at 0.25 h,[1]; [7],2930 ng/mL
same,concentration at 0.5 h,[1]; [7],2770 ng/mL
same,concentration at 1 h,[1]; [7],1870 ng/mL
same,concentration at 2 h,[1]; [7],822 ng/mL
same,concentration at 4 h,[1]; [7],603 ng/mL
same,concentration at 8 h,[1]; [7],185 ng/mL
same,concentration at 24 h,[1]; [7],26.3 ng/mL
same,concentration at 0.25 h,[1]; [8],3040 ng/mL
same,concentration at 0.5 h,[1]; [8],2410 ng/mL
same,concentration at 1 h,[1]; [8],1750 ng/mL
same,concentration at 2 h,[1]; [8],881 ng/mL
same,concentration at 4 h,[1]; [8],614 ng/mL
same,concentration at 8 h,[1]; [8],190 ng/mL
same,concentration at 24 h,[1]; [8],26 ng/mL
same,concentration at 8 h,"[1]; Tucaresol PO 10 mg/kg, 8 h, single mice, read-out: Tucaresol concentration",222 ng/mL
